This is an account of results in US7829593B2, “Glutamine-containing compositions and a method for increasing blood flow using same” (Ajinomoto Co., Inc., priority 2006, dated 2010).

The subject of experiment [1] is blood flow in the capillary vessels of various organs of rats. Description: Changes in blood flow in various organs after oral administration of glutamine to rats (microsphere method). In kind it is in vivo, rat. Conditions: for Change in blood flow after administration of amino acid, on the basis of 100% blood flow before administration: male SD rats, 50 mg/kg glutamine into the stomach. The method, then: (a) Glutamine was given to rats and then the changes in blood flow in the capillary vessels of their various organs were determined. (b) Male SD rats having a body weight of about 400 g were subjected to the experiment. (c) The rats were anesthetized by pentobarbital, and catheters were placed in the left ventricle and the right […] of each rat. […] Through the catheter located from the carotid artery to the left ventricle, yellow and red microspheres were each injected before and after the administration of the amino acid solution. […] For the control group, distilled water was administered. (b) Operation: Catheters were inserted into the carotid and femoral arteries of the rats under anesthesia, the microspheres were injected via these catheters, and blood samples were taken. […] After a sufficient interval after the second injection of the microspheres, the rats were euthanized. The muscles, alimentary canals, liver, kidneys, spleen, heart, brain, fat tissue, and abdominal skin were extracted. The microspheres which had collected in each organ were removed and the change in the ratio of the blood flow was calculated from the amounts of microspheres present in each organ.

The subject of experiment [2] is blood pressure and vascular resistance in humans. Conditions: 78 kg average body weight, cited from earlier work.

Where two headings read alike, the source gives them in different places.

For the molecule `NC(=O)CC[C@H](N)C(=O)O` [Glutamine, glutamine], the “Change in blood flow after administration of amino acid, on the basis of 100% blood flow before administration” value in experiment [1] (Abdominal skin) was 146%; in experiment [1] (Brain), 163%; in experiment [1] (Dorsal skin), 154%; in experiment [1] (Duodenum), 136%; in experiment [1] (Fat tissues), 137%; in experiment [1] (Gastrocnemius), 105%. Besides, the “Change in blood flow after administration of amino acid, on the basis of 100% blood flow before administration” value in experiment [1] (Heart) was 259%; in experiment [1] (Kidney) it was 113%; in experiment [1] (Liver) it was 226%; in experiment [1] (Soleus) it was 146%; in experiment [1] (Spleen), 146%. In experiment [1] (abdominal skin, spleen, liver, heart and brain, rats, 50 mg/kg glutamine), the “Blood flow in the capillary vessels (result in words)” value is reported as “significant increase in blood flow”.
On to `N=C(N)NCCC[C@H](N)C(=O)O` [arginine], for which the “Effect on blood pressure and vascular resistance” value was “did not have either effect” in experiment [2] (6 g arginine intravenously); “lowered blood pressure and vascular resistance” in experiment [2] (30 g arginine intravenously).
